Data: patent US9376470B2, “Polypeptide having angiogenesis-inducing activity and antibacterial activity, and use thereof for medical purposes” (FunPep Inc., priority 2008, dated 2016)
Peptide text beside a SMILES is read from it.

Tests used:
[1] = tested on: human vascular endothelial cells and fibroblast cells (co-culture, Angiogenesis Kit KZ-1000); details: 10 μg/mL, length of lumina
Method: Using AG30-5C as a positive control, the angiogenesis-inducing activity of SR-1 and SR-2 was measured. […] As a negative control, polypeptide-free group (Control) was used.
Cells were cultured at 37° C. under 5% CO2 in a 24-well plate using the special media to which the polypeptide was added. The medium was replaced with a medium containing the same polypeptide on day 4, day 7 and day 9 of culture. On day 11 from the beginning of the culture, the medium was removed and staining was performed using a kit for staining lumina (for CD31 antibody staining) according to the following procedure.
The primary antibody (mouse anti-human CD31 antibody) was 4000-fold diluted with a blocking solution (Dulbecco's phosphate buffered saline (PBS(−)) containing 1% BSA). To each well, 0.5 mL of this primary antibody solution was added, and the plate was incubated for 60 minutes at 37° C. After the completion of the incubation, each well was washed totally 3 times with 1 mL of the blocking solution.
Then, 0.5 mL of a secondary antibody solution (goat anti-mouse IgG/alkaline phosphatase conjugate) 500-fold diluted with the blocking solution was added to each well. The plate was incubated for 60 minutes at 37° C., and thereafter each well was washed 3 times with 1 mL of distilled water. During that period, 2 tablets of BCIP/NBT were dissolved into distilled water, and the obtained solution was filtered through a filter having a pore size of 0.2 μm to prepare a substrate solution. To each well, 0.5 mL of the prepared BCIP/NBT substrate solution was added, and the plate was incubated at 37° C. until the lumina turned to deep purple (typically for 5-10 minutes). After the completion of the incubation, each well was washed 3 times with 1 mL of distilled water. After washing, the washing solution was removed by aspiration, and the plate was left to stand and dry naturally. After drying, photographs of each well were taken under a microscope.
Each of the obtained images was quantified using an angiogenesis quantification software. Computer analysis was carried out on various parameters.

[2] = tested on: HWY/slc hairless rats, full-thickness defect infected with Staphylococcus aureus; assay: Healing effect in rat infected-wound model; type: in vivo
Method: Referring to Stenberg B D et al. (J Surg Res. 1991 January; 50(1):47-50.) and Hayward P et al. (Am J. Surg. 1992 March; 163(3):288-93.), a rat infected-wound model was produced as described below. […] hairless rats (male, 7-week old, obtained from Japan SLC, Inc.) were used. The day before full-thickness defects were created, the number of leukocytes was measured and cyclophosphamide was administered in tail vein (100 mg/kg). On the next day, the number of leukocytes was counted. Only the individuals in which the number of leukocytes was not more than 5000, were used. […] After administering the test substances, the wound sites were covered with a covering (PERME-ROLL, Nitto Medical Corporation) (day 0). […] Six days after the full-thickness defects were created (day 6), the area where the wounds had still not healed was measured to calculate the ratio of it relative to the area where the wounds were created, and the ratio was regarded as the wound area ratio on day 6.

Compound	angiogenesis-inducing activity compared with AG30-5C [1]	Wound area ratio on day 6 ([2]; SR-1 50 μg, bFGF formulation 3 μg/25 μL, once a day days 0-3)	healing effect on wounds associated with infection ([2]; compared with the bFGF formulation)
CC(C)C[C@H](NC(=O)[C@H](CCCCN)NC(=O)[C@H](CCCNC(=N)N)NC(=O)[C@H](CCCCN)NC(=O)[C@H](CC(C)C)NC(=O)[C@H](CCCNC(=N)N)NC(=O)[C@H](CCCCN)NC(=O)[C@H](CCCNC(=N)N)NC(=O)[C@H](CC(C)C)NC(=O)[C@H](CCCNC(=N)N)NC(=O)[C@H](CCCNC(=N)N)NC(=O)[C@H](CCCCN)NC(=O)[C@H](CC(C)C)NC(=O)[C@H](CCCNC(=N)N)NC(=O)[C@H](Cc1c[nH]cn1)NC(=O)[C@H](CC(C)C)NC(=O)[C@H](Cc1ccccc1)NC(=O)[C@H](CCCNC(=N)N)NC(=O)[C@H](CC(C)C)NC(=O)[C@@H](N)CCC(=O)O)C(=O)N[C@@H](CCCNC(=N)N)C(N)=O [SR-2] (H-ELRFLHRLKRRLRKRLKRKLR-NH2; N-terminus assumed)	higher than AG30-5C		
CC[C@H](C)[C@H](NC(=O)[C@H](CC(C)C)NC(=O)[C@H](CCCCN)NC(=O)[C@H](CC(C)C)NC(=O)[C@@H](N)CCSC)C(=O)N[C@@H](Cc1ccccc1)C(=O)N[C@@H](CC(C)C)C(=O)N[C@@H](Cc1c[nH]cn1)C(=O)N[C@@H](CCCNC(=N)N)C(=O)N[C@@H](CC(C)C)C(=O)N[C@@H](CCCCN)C(=O)N[C@@H](CCCNC(=N)N)C(=O)N[C@@H](CCSC)C(=O)N[C@@H](CCCNC(=N)N)C(=O)N[C@@H](CCCCN)C(=O)N[C@@H](CCCNC(=N)N)C(=O)N[C@@H](CC(C)C)C(=O)N[C@@H](CCCCN)C(=O)N[C@@H](CCCNC(=N)N)C(=O)N[C@@H](CCCCN)C(=O)O [SR-1] (H-MLKLIFLHRLKRMRKRLKRK-OH; N-terminus assumed)	higher than AG30-5C	80.2	higher healing effect compared with the bFGF formulation
